These are literature values, as cited in US7402581B2, “Azetidine compounds” (Albireo AB, priority 2003, dated 2008).

This series addresses T1, Human Neurokinin-2 (NK2) Receptor (Homo sapiens, UniProt P21452).
T1 sequence (P21452 1-398): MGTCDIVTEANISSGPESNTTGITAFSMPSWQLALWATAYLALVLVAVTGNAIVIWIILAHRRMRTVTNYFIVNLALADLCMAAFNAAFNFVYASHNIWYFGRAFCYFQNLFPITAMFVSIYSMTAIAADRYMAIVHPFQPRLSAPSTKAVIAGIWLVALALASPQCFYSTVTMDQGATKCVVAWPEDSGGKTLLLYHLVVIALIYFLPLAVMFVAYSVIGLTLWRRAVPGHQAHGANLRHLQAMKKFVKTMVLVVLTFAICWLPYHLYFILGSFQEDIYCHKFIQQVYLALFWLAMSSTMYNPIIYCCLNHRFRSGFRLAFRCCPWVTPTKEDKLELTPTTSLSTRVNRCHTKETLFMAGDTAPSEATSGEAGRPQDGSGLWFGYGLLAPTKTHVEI
As to conditions: reported in Bioorganic & Medicinal Chemistry Letters 2003.

The structures appear in SMILES notation.

As to `CN(CC(CCN1CC(N2CCOCC2)C1)c1ccc(Cl)c(Cl)c1)C(=O)c1ccccc1` (stereo not shown) [N-[2-(3,4-dichlorophenyl)-4-(3-morpholin-4-ylazetidin-1-yl)butyl]-N-methylbenzamide], the “functional NK2 receptor antagonistic properties” value is given as “functional NK2 receptor antagonistic properties”.
